± gives the expanded uncertainty stated by the source.
Experiment: molar heat capacity at constant pressure
Conditions: 101.33 kPa, Vacuum adiabatic calorimetry

CC(C)(C)Cc1ccccc1 [(2,2-dimethylpropyl)benzene]
molar heat capacity at constant pressure [J/K/mol]
Conditions	Crystal	Liquid
5 K	0.3584 ± 0.017	–
6.43 K	0.79 ± 0.02	–
6.83 K	0.95 ± 0.02	–
7.1 K	1.05 ± 0.02	–
7.5 K	1.2 ± 0.02	–
7.91 K	1.41 ± 0.02	–
8.27 K	1.62 ± 0.03	–
8.57 K	1.81 ± 0.03	–
8.9 K	2.04 ± 0.03	–
9.24 K	2.3 ± 0.03	–
9.58 K	2.54 ± 0.03	–
9.91 K	2.77 ± 0.04	–
10 K	2.835 ± 0.036	–
10.24 K	3 ± 0.04	–
10.55 K	3.28 ± 0.04	–
10.86 K	3.54 ± 0.04	–
11.15 K	3.76 ± 0.04	–
11.45 K	4.08 ± 0.05	–
11.74 K	4.36 ± 0.05	–
12.04 K	4.69 ± 0.05	–
12.51 K	5.2 ± 0.05	–
13.17 K	6 ± 0.06	–
13.78 K	6.68 ± 0.06	–
14.4 K	7.42 ± 0.07	–
14.99 K	8.11 ± 0.07	–
15 K	8.156 ± 0.069	–
15.59 K	8.88 ± 0.07	–
16.17 K	9.65 ± 0.08	–
16.76 K	10.42 ± 0.08	–
17.35 K	11.18 ± 0.08	–
18.02 K	12.15 ± 0.09	–
18.82 K	13.47 ± 0.09	–
19.44 K	14.45 ± 0.1	–
20 K	15.37 ± 0.1	–
20.07 K	15.49 ± 0.1	–
20.87 K	16.75 ± 0.11	–
21.6 K	17.96 ± 0.11	–
22.31 K	19.18 ± 0.11	–
22.92 K	20.15 ± 0.11	–
23.68 K	21.34 ± 0.12	–
24.39 K	22.44 ± 0.12	–
25 K	23.31 ± 0.12	–
25.18 K	23.58 ± 0.12	–
25.93 K	24.66 ± 0.12	–
26.71 K	25.76 ± 0.12	–
27.52 K	26.89 ± 0.12	–
28.33 K	28.13 ± 0.12	–
29.16 K	29.24 ± 0.12	–
30 K	30.36 ± 0.1	–
30.01 K	30.42 ± 0.1	–
30.87 K	31.42 ± 0.11	–
31.75 K	32.74 ± 0.11	–
32.64 K	33.75 ± 0.11	–
33.41 K	34.7 ± 0.11	–
34.46 K	36.13 ± 0.12	–
35 K	36.76 ± 0.12	–
35.4 K	37.3 ± 0.12	–
36.35 K	38.43 ± 0.12	–
37.32 K	39.67 ± 0.12	–
38.31 K	40.94 ± 0.12	–
39.3 K	41.89 ± 0.13	–
40 K	42.83 ± 0.13	–
40.33 K	43.02 ± 0.13	–
41.36 K	44.25 ± 0.13	–
42.4 K	45.57 ± 0.13	–
43.47 K	46.7 ± 0.14	–
44.54 K	47.93 ± 0.14	–
45 K	48.21 ± 0.14	–
45.63 K	48.9 ± 0.14	–
46.73 K	49.79 ± 0.14	–
47.83 K	50.85 ± 0.14	–
48.96 K	51.7 ± 0.14	–
50 K	52.68 ± 0.15	–
50.08 K	52.7 ± 0.15	–
51.22 K	53.77 ± 0.15	–
52.37 K	54.62 ± 0.15	–
53.54 K	55.66 ± 0.15	–
54.59 K	56.42 ± 0.15	–
56 K	57.64 ± 0.16	–
57.09 K	58.58 ± 0.16	–
58.29 K	59.72 ± 0.16	–
59.5 K	60.71 ± 0.16	–
60 K	61.21 ± 0.16	–
60.59 K	61.7 ± 0.16	–
61.93 K	63.06 ± 0.17	–
63.16 K	64.15 ± 0.17	–
64.57 K	65.26 ± 0.17	–
65.64 K	66.12 ± 0.17	–
66.89 K	67.2 ± 0.18	–
68.15 K	68 ± 0.18	–
69.4 K	69.06 ± 0.18	–
70 K	69.54 ± 0.18	–
70.99 K	70.19 ± 0.18	–
72.9 K	71.7 ± 0.18	–
74.83 K	72.92 ± 0.19	–
76.87 K	74.43 ± 0.19	–
78.7 K	75.75 ± 0.19	–
79.98 K	76.76 ± 0.19	–
80 K	76.67 ± 0.19	–
80.65 K	77.08 ± 0.19	–
81.93 K	78.1 ± 0.2	–
82.61 K	78.8 ± 0.2	–
83.87 K	79.5 ± 0.2	–
84.58 K	80.15 ± 0.2	–
85.81 K	80.93 ± 0.2	–
86.55 K	81.42 ± 0.2	–
87.75 K	82.4 ± 0.21	–
88.51 K	82.92 ± 0.21	–
89.69 K	83.89 ± 0.21	–
90 K	84.14 ± 0.28	–
90.49 K	84.64 ± 0.29	–
91.64 K	85.39 ± 0.29	–
92.48 K	86.14 ± 0.29	–
93.59 K	86.97 ± 0.29	–
95.54 K	88.3 ± 0.29	–
97.5 K	89.8 ± 0.29	–
99.45 K	91.29 ± 0.29	–
100 K	91.54 ± 0.29	–
101.41 K	92.54 ± 0.29	–
103.37 K	94.12 ± 0.29	–
105.32 K	95.53 ± 0.3	–
107.28 K	97.03 ± 0.3	–
109.23 K	98.11 ± 0.3	–
110 K	98.78 ± 0.3	–
111.18 K	99.61 ± 0.3	–
113.14 K	100.85 ± 0.3	–
115.09 K	102.6 ± 0.3	–
117.46 K	104.26 ± 0.3	–
119.37 K	105.34 ± 0.31	–
120 K	105.9 ± 0.3	–
121.31 K	106.92 ± 0.31	–
123.26 K	108 ± 0.31	–
125.2 K	109.67 ± 0.31	–
127.13 K	110.75 ± 0.31	–
129.07 K	111.99 ± 0.31	–
130 K	112.8 ± 0.3	–
131 K	113.49 ± 0.31	–
132.93 K	115.07 ± 0.32	–
134.85 K	116.15 ± 0.32	–
136.78 K	117.4 ± 0.32	–
138.7 K	118.65 ± 0.32	–
140 K	119.7 ± 0.3	–
140.61 K	120.14 ± 0.32	–
142.53 K	121.39 ± 0.32	–
144.43 K	122.97 ± 0.32	–
146.34 K	124.22 ± 0.32	–
148.22 K	125.63 ± 0.33	–
150 K	126.5 ± 0.3	–
150.12 K	126.88 ± 0.33	–
152.5 K	128.37 ± 0.33	–
155.37 K	130.04 ± 0.33	–
158.24 K	132.28 ± 0.33	–
160 K	133.4 ± 0.3	–
161.11 K	134.11 ± 0.33	–
163.99 K	135.94 ± 0.34	–
166.87 K	138.27 ± 0.34	–
169.76 K	140.35 ± 0.34	–
170 K	140.3 ± 0.3	–
172.66 K	141.93 ± 0.34	–
175.55 K	144.34 ± 0.34	–
178.45 K	146.25 ± 0.35	–
180 K	147.4 ± 0.4	–
181.36 K	148.33 ± 0.35	–
184.27 K	150.32 ± 0.35	–
187.18 K	152.57 ± 0.35	–
190 K	154.6 ± 0.4	–
190.11 K	154.9 ± 0.36	–
194.33 K	157.56 ± 0.36	–
197.18 K	160.05 ± 0.36	–
200 K	162 ± 0.4	–
200.37 K	162.3 ± 0.36	–
203.56 K	164.63 ± 0.36	–
206.46 K	166.79 ± 0.37	–
209.27 K	168.78 ± 0.37	–
210 K	169.1 ± 0.4	–
212.11 K	170.36 ± 0.37	–
215.02 K	172.52 ± 0.37	–
217.92 K	174.27 ± 0.37	–
220 K	175.9 ± 0.4	–
220.82 K	176.51 ± 0.38	–
223.7 K	178.18 ± 0.38	–
226.59 K	180.26 ± 0.38	–
229.46 K	182.33 ± 0.38	–
230 K	182.6 ± 0.4	–
232.33 K	184.33 ± 0.38	–
235.2 K	186.58 ± 0.39	–
238.05 K	188.32 ± 0.39	–
239.91 K	189.73 ± 0.39	–
240 K	189.4 ± 0.4	–
240.89 K	190.48 ± 0.39	–
240.92 K	190.57 ± 0.39	–
241.92 K	190.98 ± 0.39	–
242.92 K	191.9 ± 0.39	–
243.72 K	192.4 ± 0.39	–
243.92 K	192.73 ± 0.39	–
244.93 K	193.73 ± 0.39	–
246 K	195.64 ± 0.41	–
246.56 K	197.88 ± 0.4	–
246.6 K	202.12 ± 0.4	–
247.1 K	197.38 ± 0.4	–
248.19 K	200.88 ± 0.41	–
249.28 K	206.03 ± 0.42	–
249.34 K	207.61 ± 0.42	–
250 K	196.1 ± 0.4	–
250.36 K	213.26 ± 0.44	–
251.42 K	222.66 ± 2	–
252.01 K	245.27 ± 0.69	–
252.39 K	417.05 ± 1.1	–
252.46 K	249.27 ± 1	–
253.4 K	315.03 ± 3.3	–
254.15 K	685.44 ± 34	–
254.18 K	538.11 ± 34	–
254.69 K	1232.2 ± 620	–
254.95 K	2919.2 ± 560	–
255.01 K	4462.3 ± 540	–
255.06 K	8092.4 ± 530	–
255.09 K	5555.7 ± 500	–
255.17 K	8555.5 ± 160	–
255.21 K	9885.8 ± 180	–
255.43 K	199.7 ± 0.4	249.6 ± 0.5
256.43 K	–	250.01 ± 19
257.37 K	–	252.18 ± 0.45
257.44 K	–	250.6 ± 0.45
258.44 K	–	251.09 ± 0.45
258.78 K	–	252.09 ± 0.45
259.45 K	–	251.68 ± 0.45
260 K	–	252 ± 0.5
260.46 K	–	252.26 ± 0.45
261.48 K	–	252.92 ± 0.45
262.48 K	–	253.42 ± 0.45
263.49 K	–	254 ± 0.45
264.48 K	–	254.59 ± 0.45
264.99 K	–	254.92 ± 0.46
265.49 K	–	255.09 ± 0.46
266.49 K	–	255.67 ± 0.46
267.49 K	–	256 ± 0.46
268.67 K	–	256.58 ± 0.46
270 K	–	257.2 ± 0.5
271.15 K	–	257.83 ± 0.46
277.28 K	–	260.82 ± 0.46
280 K	–	262.5 ± 0.5
283.39 K	–	264.31 ± 0.46
289.47 K	–	267.64 ± 0.47
290 K	–	268 ± 0.5
295.52 K	–	270.8 ± 0.47
298.15 K	–	271.9 ± 0.5
300 K	–	272.6 ± 0.5
300.23 K	–	272.71 ± 0.47
300.79 K	–	273.13 ± 0.47
301.54 K	–	273.46 ± 0.47
304.11 K	–	274.29 ± 0.47
304.68 K	–	274.54 ± 0.47
307.54 K	–	275.37 ± 0.48
307.98 K	–	275.62 ± 0.48
308.57 K	–	275.71 ± 0.48
310 K	–	276.3 ± 0.5
311.84 K	–	276.95 ± 0.48
312.43 K	–	277.2 ± 0.48
313.51 K	–	277.62 ± 0.48
315.67 K	–	278.2 ± 0.48
316.31 K	–	278.53 ± 0.48
319.32 K	–	279.36 ± 0.48
319.51 K	–	279.86 ± 0.48
320 K	–	279.8 ± 0.5
320.02 K	–	279.95 ± 0.48
323.33 K	–	281.36 ± 0.48
323.89 K	–	281.44 ± 0.48
325.26 K	–	281.86 ± 0.48
327.15 K	–	283.02 ± 0.48
327.74 K	–	283.02 ± 0.48
330 K	–	284.4 ± 0.5
330.95 K	–	285.27 ± 0.49
331.19 K	–	285.18 ± 0.49
331.59 K	–	285.27 ± 0.49
334.56 K	–	287.35 ± 0.49
335.41 K	–	288.01 ± 0.49
337.07 K	–	289.09 ± 0.49
338.32 K	–	289.92 ± 0.49
339.23 K	–	290.51 ± 0.49
340 K	–	290.8 ± 0.5
342.07 K	–	292.33 ± 0.49
342.92 K	–	292.67 ± 0.49
343.02 K	–	292.75 ± 0.49
345.8 K	–	294.83 ± 0.5
346.79 K	–	295.24 ± 0.5
348.74 K	–	295.99 ± 0.5
349.52 K	–	296.82 ± 0.5
350 K	–	297 ± 0.5
350.54 K	–	297.49 ± 0.5
